Data taken from patent US7153870B2, “Nicotinamide derivatives useful as PDE4 inhibitors” (Pfizer Inc., priority 2003, dated 2006).

System: TNFα release from human peripheral blood mononuclear cells
Assay: Inhibition of LPS-stimulated TNFα release from human peripheral blood mononuclear cells (TNFα screen)
Assay type: cell-based
Conditions: LPS-stimulated human PBMC, 18 hours incubation, TNFα in supernatant by ELISA
Method: Venous blood is collected from healthy volunteers and the mononuclear cells purified by centrifugation through Histopaque (Ficoll) cushions. TNFα production from these cells is stimulated by addition of lipopolysaccharide. After 18 hours incubation in the presence of LPS, the cell supernatant is removed and the concentration of TNFα in the supernatant determined by ELISA. Addition of PDE4 inhibitors reduces the amount of TNFα produced. An IC50 is determined which is equal to the concentration of compound that gives 50% inhibition of TNFα production as compared to the LPS stimulated control wells.

Compound	IC50
CSc1cccc(Oc2ncc(F)cc2C(=O)N[C@H]2CC[C@@H](NC(=O)c3cccc4cccnc34)CC2)c1 [Example 8, Syn-Quinoline-8-carboxylic acid(4-{[5-fluoro-2-(3-methylsulfanyl-phenoxy) -pyridine-3-carbonyl]-amino}-cyclohexyl)-amide]	0.25 nM
Syn-2-Methyl-3H-benzoimidazole-4-carboxylic acid(4-{[5-fluoro-2-(3-methylsulfanyl-phenoxy)-pyridine-3-carbonyl]-amino}-cyclohexyl)-amide [Example 5]	0.04 nM
CSc1cccc(Oc2ncc(F)cc2C(=O)N[C@H]2CC[C@@H](NC(=O)c3cccn4ccnc34)CC2)c1 [Example 6, Syn-Imidazo[1,2-a]pyridine-8-carboxylic acid(4-{[5-fluoro-2-(3-methylsulfanyl-phenoxy) -pyridine-3-carbonyl]-amino}-cyclohexyl)-amide]	0.02 nM
Syn-1H-Indazole-3-carboxylic acid(4-{[5-fluoro-2-(3-methylsulfanyl-phenoxy) -pyridine-3-carbonyl]-amino}-cyclohexyl)-amide [Example 4]	2 nM
CSc1cccc(Oc2ncc(F)cc2C(=O)N[C@H]2CC[C@@H](NC(=O)c3cc4ccccn4n3)CC2)c1 [Example 1, Syn-Pyrazolo[1,5-a]pyridine-2-carboxylic acid(4-{[5-fluoro-2-(3-methylsulfanyl-phenoxy) -pyridine-3-carbonyl]-amino}-cyclohexyl)-amide]	0.1 nM
CSc1cccc(Oc2ncc(F)cc2C(=O)N[C@H]2CC[C@@H](NC(=O)c3cccc4nn[nH]c34)CC2)c1 [Example 7, Syn-3H-Benzotriazole-4-carboxylic acid(4-{[5-fluoro-2-(3-methylsulfanyl-Phenoxy) -pyridine-3-carbonyl]-amino}-cyclohexyl)-amide]	0.4 nM
CSc1cccc(Oc2ncc(F)cc2C(=O)N[C@H]2CC[C@@H](NC(=O)c3cccc4cc(O)cnc34)CC2)c1 [Example 9, Syn-3-Hydroxy-quinoline-8-carboxylic acid(4-{[5-fluoro-2-(3-methylsulfanyl-phenoxy) -pyridine-3-carbonyl]-amino}-cyclohexyl)-amide]	0.15 nM
Syn-Imidazo[1,2-a]pyridine-2-carboxylic acid(4-{[5-fluoro-2-(3-methylsulfanyl -phenoxy)-pyridine-3-carbonyl]-amino}-cyclohexyl)-amide [Example 3]	0.1 nM
CSc1cccc(Oc2ncc(F)cc2C(=O)N[C@H]2CC[C@@H](NC(=O)c3nn(CCO)c4ccccc34)CC2)c1 [Example 10, Syn-1-(2-Hydroxy-ethyl)-1H-indazole-3-carboxylic acid(4-{[5-fluoro-2-(3-methylsulfanyl-phenoxy)-pyridine-3-carbonyl]-amino}-cyclohexyl)-amide]	0.3 nM
Syn-1-Isopropyl-1H-benzoimidazole-4-carboxylic acid(4-{[5-fluoro-2-(3-methylsulfanyl-phenoxy)-pyridine-3-carbonyl]-amino}-cyclohexyl)-amide [Example 2]	1 nM
